From US4304778A, “4-Aminoquinazoline derivatives having fungicidal, anti-insect and acaricidal properties” (Sankyo Company Limited, priority 1978, dated 1981)

Key:
Phytophthora infestans = assay type: in vivo; conditions: tomato late blight; 500 ppm; after 5 days; average per leaf
Alternalia solani = assay: Effect on early blight in tomatoes; assay type: in vivo; conditions: tomato early blight; 500 ppm; 3 days in greenhouse
Procedure: (§1) In the following Examples, wettable powders prepared according to the procedures of Example 4 were used, each powder containing 50% by weight of the active compound of this invention.
Groups of tomato plants (variety Shinfukuju) were planted, two per pot, in a series of Wagner pots (diameter 12 cm) and used for the following test when at the 5 to 6 leaf stage. Each pot was treated with 30 ml of an aqueous suspension containing 500 ppm of one of the active compounds shown in Table 3, applied to the plants by spraying over their stems and leaves. After air-drying the plants, a spore suspension of the pathogenic microorganism Alternalia solani was sprayed over each plant, and the plants were kept in a wet room for 24 hours at 20°-22° C. and 100% relative humidity. The pots were then placed in a greenhouse for 3 days. All leaves were then examined for signs of the disease and the number of disease spots per leaf was calculated, using three pots for each compound.

[1] = test system: Colletotrichum lagenarium; assay: Effect on anthracnose in cucumbers; assay type: in vivo; conditions: cucumber anthracnose; 500 ppm; seven days; cotyledon and first leaf
Procedure: as §1
Groups of cucumber plants (variety Sagamihanshiro) were planted, two per pot, in a series of Wagner pots (diameter 12 cm) and were used as host plants when the first leaf was fully grown and open. Each test group of three pots was treated with one of the active compounds shown in Table 4 by spraying an aqueous suspension containing 500 ppm of the active compound onto the plants at the rate of 30 ml per 3 pots. After air-drying the plants, a spore suspension of the pathogenic microorganism Colletotrichum lagenarium was sprayed onto the plants and the plants were kept in a wet room for 24 hours at 20°-22° C. and 100% relative humidity. The pots were then placed in a greenhouse at 26° C. and, seven days after the spore suspension had been sprayed on, the percentage diseased area of the cotyledon and the first leaf was calculated.

Sphaerotheca fuliginea = assay: Effect on powdery mildew in cucumbers; assay type: in vivo; conditions: cucumber powdery mildew; 500 ppm; 10 days
Procedure: as §1
Cucumber seedlings (variety Sagamihanshiro), planted two per 12 cm diameter pot, were used as host plants at the stage when the first leaf was fully grown and open. Each test group of three pots was treated with one of the active compounds shown in Table 5 by spraying an aqueous suspension containing 500 ppm of the active compound onto the plants at the rate of 20 ml per 3 pots. After air-drying the plants, the host plants were inoculated with the microorganism Sphaerotheca fuliginea by brushing already infected cucumber leaves with a small brush and letting the microorganism fall onto the host plants. The inoculated plants were kept in a greenhouse at 24°-26° C. for 10 days. At the end of this time, the percentage diseased area was measured.

guppies = assay: Toxicity to guppies; assay type: in vivo; conditions: LC50 after 48 hours classified
Procedure: In this example the toxicity of the compounds of the invention towards guppies was estimated and is compared with that of corresponding compounds as disclosed and claimed in our co-pending U.S. Application No. 910,117 filed May 30, 1978. The LC50 was determined after 48 hours and the toxicity to guppies was classified into the rankings (i), (ii) and (iii) according to the following classification scheme: […]

cockroach larvae = conditions: 24 hours; 25° C.
Piricularia oryzae = assay type: in vivo; conditions: rice blast; 500 ppm spray; mean, upper two leaves
[2] = test system: third instar larvae of the tobacco cutworm; assay: Repellent action against the third instar larvae of the tobacco cutworm; assay type: in vivo; set-up: key: -: no ingestion; ±: very little ingestion; +: some ingestion; ++: considerable ingestion; conditions: cabbage leaves dipped in 500 ppm, 72 hours
Source text: as §1
Cabbage leaves were dipped for 30 seconds in an aqueous suspension containing 500 ppm of one of the active compounds shown in Table 6. After air-drying, each leaf was placed into a plastic receptacle having a diameter of 8 cm and the third instar larvae (10 per receptacle) of the tobacco cutworm were released onto the leaves. After 72 hours, the extent of ingestion of the leaves was measured, using two receptacles for each test compound. The results are shown in Table 6, using the following notation (which is also employed, with the same meaning, in following Table 9): […]

[3] = test system: final instar larvae of the diamondback moth (Plutella xylostella); assay: Repellent and emergence-inhibition effect on the final instar larvae of diamondback moths; assay type: in vivo; set-up: key to Extent of ingestion: -: no ingestion; ±: very little ingestion; +: some ingestion; ++: considerable ingestion; conditions: 72 hours; for pest or weed control at 500 ppm: Plutella xylostella, read-out: Emergence-inhibition rate (%); for Extent of ingestion: radish leaves dipped in 500 ppm
Source text: as §1
Leaves of the Japanese radish (Raphanus sativus) were dipped for 30 seconds into a liquid containing 500 ppm of one of the compounds shown in Table 9. After air-drying the leaves, each leaf was placed into a plastic icecream cup (diameter 8 cm) and 15 final instar larvae of the diamondback moth (Plutella xylostella) were placed into each cup. Each test was conducted in duplicate and the results were averaged.

## Cc1ccccc1OCCN(C)c1ncnc2ccccc12 [Compound No. 1, 4-{N-methyl-N-[2-(2-methylphenoxy)ethyl]amino}-quinazoline]
Phytophthora infestans
  Diseased area (%): 0%
Alternalia solani
  No. of disease spots per leaf: 8 spots per leaf
[1]
  Diseased area (%): 0%
Sphaerotheca fuliginea
  Diseased area (%): 0%
guppies
  Toxicity ranking: ii (all fish dead at 10 ppm but alive at 0.5 ppm)

## CCN(CCOc1ccccc1C)c1ncnc2ccccc12 [Compound No. 2, 4-{N-ethyl-N-[2-(2-methylphenoxy)ethyl]amino}quinazoline]
Phytophthora infestans
  Diseased area (%): 3%
Alternalia solani
  No. of disease spots per leaf: 16 spots per leaf
[1]
  Diseased area (%): 0%
Sphaerotheca fuliginea
  Diseased area (%): 0%
guppies
  Toxicity ranking: ii (all fish dead at 10 ppm but alive at 0.5 ppm)
Cockroach larvae
  Mortality rate (%), 0.5mg test cpd/10 cockroaches/bottle: 90%
  Mortality rate (%), 1mg test cpd/10 cockroaches/bottle: 100%

## Cc1ccccc1OCCN(c1ncnc2ccccc12)C1CCCCC1 [compound 9, 4-{N-cyclohexyl-N-[2-(2-methylphenoxy)ethyl]amino}quinazoline]
Phytophthora infestans
  Diseased area (%): 13%
Alternalia solani
  No. of disease spots per leaf: 15 spots per leaf

## CCCCN(CCOc1ccccc1C)c1ncnc2ccccc12 [compound 10, 4-{N-butyl-N-[2-(2-methylphenoxy)ethyl]amino}quinazoline]
Alternalia solani
  No. of disease spots per leaf: 4 spots per leaf
Sphaerotheca fuliginea
  Diseased area (%): 0%

## CN(CCOCc1ccc(Cl)cc1)c1ncnc2ccccc12 [compound 14, 4-{N-[2-(4-chlorobenzyloxy)ethyl]-N-methylamino}quinazoline]
Piricularia oryzae
  No. of disease spots per leaf: 1.5 spots per leaf

## CN(CCOc1ccc(Cl)cc1)c1ncnc2ccccc12 [compound 19, 4-{N-[2-(4-chlorophenoxy)ethyl]-N-methylamino}quinazoline]
[2]
  Extent of ingestion: +
[3]
  pest or weed control at 500 ppm: 80%
  Extent of ingestion: ±
Cockroach larvae
  Mortality rate (%), 0.5mg test cpd/10 cockroaches/bottle: 85%
  Mortality rate (%), 1mg test cpd/10 cockroaches/bottle: 100%

## C=CCN(CCOc1ccccc1C(C)C)c1ncnc2ccccc12 [compound 25, 4-{N-allyl-N-[2-(2-isopropylphenoxy)ethyl]amino}quinazoline]
Phytophthora infestans
  Diseased area (%): 0%
Alternalia solani
  No. of disease spots per leaf: 15 spots per leaf
[1]
  Diseased area (%): 8%
Sphaerotheca fuliginea
  Diseased area (%): 0%
Cockroach larvae
  Mortality rate (%), 0.5mg test cpd/10 cockroaches/bottle: 85%
  Mortality rate (%), 1mg test cpd/10 cockroaches/bottle: 100%

## C=CCN(CCOc1ccc(C)cc1C)c1ncnc2ccccc12 [compound 26, 4-{N-allyl-N-[2-(2,4-dimethylphenoxy)ethyl]amino}quinazoline]
Phytophthora infestans
  Diseased area (%): 3%
[1]
  Diseased area (%): 0%
Sphaerotheca fuliginea
  Diseased area (%): 0%
[2]
  Extent of ingestion: ± to +
[3]
  pest or weed control at 500 ppm: 80%
  Extent of ingestion: ± to +
Cockroach larvae
  Mortality rate (%), 0.5mg test cpd/10 cockroaches/bottle: 90%
  Mortality rate (%), 1mg test cpd/10 cockroaches/bottle: 100%

## CC(C)c1ccccc1OCCN(c1ncnc2ccccc12)C1CCCCC1 [compound 31, 4-{N-cyclohexyl-N-[2-(2-isopropylphenoxy)ethyl]amino}quinazoline]
Alternalia solani
  No. of disease spots per leaf: 13 spots per leaf

## CCN(CCOc1ccc(C)cc1C)c1ncnc2ccccc12 [compound 32, 4-{N-[2-(2,4-dimethylphenoxy)ethyl]-N-ethylamino}quinazoline]
Phytophthora infestans
  Diseased area (%): 5%
[1]
  Diseased area (%): 8%
Sphaerotheca fuliginea
  Diseased area (%): 0%
Cockroach larvae
  Mortality rate (%), 0.5mg test cpd/10 cockroaches/bottle: 85%
  Mortality rate (%), 1mg test cpd/10 cockroaches/bottle: 100%

## Cc1ccc(OCCN(c2ncnc3ccccc23)C(C)C)c(C)c1 [compound 34, 4-{N-[2-(2,4-dimethylphenoxy)ethyl]-N-isopropylamino}quinazoline]
Phytophthora infestans
  Diseased area (%): 0%
Alternalia solani
  No. of disease spots per leaf: 15 spots per leaf
Sphaerotheca fuliginea
  Diseased area (%): 10%

## CCN(CCOc1ccc(Cl)cc1C)c1ncnc2ccccc12 [compound 38, 4-{N-[2-(4-chloro-2-methylphenoxy)ethyl]-N-ethylamino}quinazoline]
Phytophthora infestans
  Diseased area (%): 13%
Sphaerotheca fuliginea
  Diseased area (%): 0%
[2]
  Extent of ingestion: ±
[3]
  pest or weed control at 500 ppm: 100%
  Extent of ingestion: - to ±
Cockroach larvae
  Mortality rate (%), 0.5mg test cpd/10 cockroaches/bottle: 90%
  Mortality rate (%), 1mg test cpd/10 cockroaches/bottle: 100%

## CCCN(CCOc1ccc(Cl)cc1C)c1ncnc2ccccc12 [compound 39, 4-{N-[2-(4-chloro-2-methylphenoxy)ethyl]-N-propylamino}quinazoline]
Phytophthora infestans
  Diseased area (%): 9%
Sphaerotheca fuliginea
  Diseased area (%): 0%
guppies
  Toxicity ranking: ii (all fish dead at 10 ppm but alive at 0.5 ppm)
Cockroach larvae
  Mortality rate (%), 0.5mg test cpd/10 cockroaches/bottle: 85%
  Mortality rate (%), 1mg test cpd/10 cockroaches/bottle: 100%

## CCCCN(CCOc1ccc(Cl)cc1C)c1ncnc2ccccc12 [compound 41, 4-{N-butyl-N-[2-(4-chloro-2-methylphenoxy)ethyl]amino}quinazoline]
[2]
  Extent of ingestion: ± to +
[3]
  pest or weed control at 500 ppm: 90%
  Extent of ingestion: ±
Cockroach larvae
  Mortality rate (%), 0.5mg test cpd/10 cockroaches/bottle: 85%
  Mortality rate (%), 1mg test cpd/10 cockroaches/bottle: 100%

## C=CCN(CCOc1ccc(Cl)cc1C)c1ncnc2ccccc12 [compound 43, 4-{N-allyl-N-[2-(4-chloro-2-methylphenoxy)ethyl]amino}quinazoline]
Phytophthora infestans
  Diseased area (%): 11%
Sphaerotheca fuliginea
  Diseased area (%): 0%
[2]
  Extent of ingestion: +
[3]
  pest or weed control at 500 ppm: 70%
  Extent of ingestion: ±
Cockroach larvae
  Mortality rate (%), 0.5mg test cpd/10 cockroaches/bottle: 90%
  Mortality rate (%), 1mg test cpd/10 cockroaches/bottle: 100%

## CCCCCCN(CCOc1ccccc1C(C)C)c1ncnc2ccccc12 [compound 44, 4-{N-hexyl-N-[2-(2-isopropylphenoxy)ethyl]amino}quinazoline]
Piricularia oryzae
  No. of disease spots per leaf: 3.1 spots per leaf

## CCN(CCOc1cc(C(C)C)ccc1C)c1ncnc2ccccc12 [compound 47, 4-{N-ethyl-N-[2-(5-isopropyl-2-methylphenoxy)ethyl]amino}quinazoline]
Sphaerotheca fuliginea
  Diseased area (%): 0%
[2]
  Extent of ingestion: ± to +
[3]
  pest or weed control at 500 ppm: 90%
  Extent of ingestion: ±
Cockroach larvae
  Mortality rate (%), 0.5mg test cpd/10 cockroaches/bottle: 85%
  Mortality rate (%), 1mg test cpd/10 cockroaches/bottle: 100%

## CC=CCN(CCOc1ccccc1C(C)C)c1ncnc2ccccc12 [compound 51, 4-{N-(2-butenyl)-N-[2-(2-isopropylphenoxy)ethyl]amino}quinazoline]
Phytophthora infestans
  Diseased area (%): 0%
Alternalia solani
  No. of disease spots per leaf: 4 spots per leaf
[1]
  Diseased area (%): 0%
Sphaerotheca fuliginea
  Diseased area (%): 0%

## C=C(C)CN(CCOc1ccccc1C(C)C)c1ncnc2ccccc12 [compound 52, 4-{N-[2-(2-isopropylphenoxy)ethyl]-N-(2-methylallyl)amino}quinazoline]
Phytophthora infestans
  Diseased area (%): 13%
[1]
  Diseased area (%): 8%
Sphaerotheca fuliginea
  Diseased area (%): 0%
guppies
  Toxicity ranking: i (all fish alive at 10 ppm)

## CCCCCCc1ccc(OCCN(C)c2ncnc3ccccc23)c(C)c1 [compound 57, 4-{N-[2-(4-hexyl-2-methylphenoxy)ethyl]-N-methylamino}quinazoline]
[2]
  Extent of ingestion: ±
[3]
  pest or weed control at 500 ppm: 100%
  Extent of ingestion: - to ±
Cockroach larvae
  Mortality rate (%), 0.5mg test cpd/10 cockroaches/bottle: 90%
  Mortality rate (%), 1mg test cpd/10 cockroaches/bottle: 100%
